Where “and” joins values, the source holds several entries; their conditions need not be identical. Identical values can stand only once. Entries after “also recorded” stand apart in the source; their conditions may differ. Counter-ions that a name gives are not always drawn. One block for each compound: values may come before it.
Key:
[1] = tested on: T1, human A1AR; experiment: Radioligand displacement binding, [3H]DPCPX, HEK293 membranes; details: mean ± standard error, three independent experiments
T1 construct: host or cells: HEK293 A1AR Nomad cell line
Protocol: (§1) HEK293 cells stably expressing the human A1AR, A2AAR, A3AR were cultured in DMEM supplemented with 10% fetal bovine serum, 100 Units/ml penicillin, 100 µg/ml streptomycin, and 2 µmol/ml glutamine. To prepare cell membranes, cells were detached from culture plates by scraping into cold PBS and centrifuged at 250 g for 5 min. The pellets were resuspended in ice-cold PBS buffer (pH 7.4) and then homogenized. After homogenization and suspension, cells were centrifuged at 1,000 g for 10 min, and the pellet was discarded. The suspension was then re-centrifuged at 20,000 g for 60 min at 4°C. […] The aliquots of membrane preparations were stored at −80°C until the binding experiments. For displacement binding assays, membrane preparations (20 µg proteins/tube) were incubated at 25°C for 60 min with a final concentration of [^3H]DPCPX (0.5 nM), [^3H]ZM241385 (1.0 nM), […] [^125I]I-AB-MECA (0.1 nM) for A1AR, A2AAR, A3AR, respectively, in a mixture containing 50 µl of increasing concentrations of a test ligand in a total assay volume of 200 µl of 50 mM Tris HCl, pH 7.4, containing 10 mM MgCl2. Nonspecific binding was determined using 100 µM of XAC. The reaction was terminated by filtration with GF/B filters using a Brandel (Gaithersburg, MD) 24-channel harvester. Filters were placed in scintillation vials containing 5 ml of Hydrofluor scintillation buffer (National Diagnostics, Atlanta, GA) and counted using a Tricarb 2810TR liquid scintillation counter (PerkinElmer, Waltham, MA).

[2] = tested on: T2, A1AR; experiment: cAMP assay in AR-expressing HEK293 cells (ALPHAScreen), A1AR; type: cell-based, human; details: A1AR-expressing HEK cells, cAMP inhibition, Cl-ENBA reference full agonist
T2 construct: expressed in transfected cells; host or cells: HEK293
Protocol: (§2) HEK293 cells were grown in 96-well plates in DMEM supplemented with 10% fetal bovine serum, 100 Units/ml penicillin, 100 µg/ml streptomycin, and 2 µmol/ml glutamine. […] For A1AR and A3AR, after incubation with agonists for 20 min, forskolin (10 µM) was added and the mixture incubated for an additional 15 min. The reaction was terminated upon removal of the supernatant and addition of 100 µl Tween-20 (0.3%). Intracellular cAMP levels were measured with an ALPHAScreen cAMP assay kit as instructed by the manufacturer (PerkinElmer).

[3] = tested on: T1, human A1AR; experiment: A1AR cAMP assay, HEK293 A1AR Nomad cell line (Innoprot), agonist mode; type: cell-based; details: compounds at 10 µM, normalized to 10 µM NECA (100%) and vehicle DMSO (0%)
Source text: For screening of the initial compounds predicted by machine learning models to activate A1AR receptor, we used the HEK293 A1AR Nomad cell line, which consists of HEK293 cells stably expressing human A1AR with no tag. This cell line has been designed to assay compounds or analyze their capability to modulate the A1AR. When the agonist binds to A1AR in this engineered cell line a Go protein is activated, which in turn, triggers a cellular response mediated by cAMP inhibition. This cellular response can be measured by quantifying the increase in fluorescence intensity and its cellular distribution. An agonist assay was performed for 29 compounds (predicted to be active by the machine learning model) in the human recombinant HEK293 A1AR Nomad cell line using a fluorescence-based assay. An agonist effect of the compounds was measured by quantifying the changes in the fluorescence emission cAMP Nomad biosensor, this elevation of fluorescence was analyzed using a plate reader Synergy 2 (Biotek, Winooski, VT). The error bars represent the standard deviation among the three replicate wells. The 29 compounds were tested at 10 μM using nonselective AR agonist adenosine-5′-N-ethyluronamide (NECA) at 10 μM as a reference.

[4] = tested on: T3, A1AR; experiment: PathHunter β-Arrestin assay (Eurofins/DiscoverX), agonist mode; type: cell-based; details: maximum concentration 20 µM; normalized to control agonist CPA and vehicle
T3 construct: host or cells: A1AR-bla U2OS
Protocol: PathHunter cell lines were expanded from freezer stocks according to standard procedures. […] For agonist determination, cells were incubated with sample to induce response. Intermediate dilution of sample stocks was performed to generate 5X sample in assay buffer. […] Vehicle concentration was 1%. […] Microplates were read following signal generation with a PerkinElmer Envision™ instrument for chemiluminescent signal detection.
(§3) This parental cell line stably expresses a beta‐arrestin/TEV protease fusion protein and the beta‐lactamase reporter gene under the control of a UAS response element. […] We also used a secondary assay PathHunter® β-Arrestin assay, which monitors the activation of A1AR in a homogenous, non-imaging assay format using a technology developed by DiscoverX called Enzyme Fragment Complementation (EFC) with β-galactosidase (β-Gal) as the functional reporter.

[5] = tested on: T4, A2BAR; experiment: cAMP assay in AR-expressing HEK293 cells (ALPHAScreen), A2BAR; type: cell-based
T4 construct: expressed in transfected cells; host or cells: HEK293
Protocol: as §2

[6] = molecular target: T5, human A2AAR (Homo sapiens, UniProt P29274); experiment: cAMP assay in AR-expressing HEK293 cells (ALPHAScreen), A2AAR; type: cell-based; details: for cAMP, A2AAR activity (stimulation of cAMP) / Emax: A2AAR-expressing HEK293 cells; for Emax: reference full agonist = 100% stimulation; for EC50: HEK293 cells expressing human A2AAR, absence of antagonist, read-out: EC50, stimulation of cAMP, A2AAR
T5 construct: expressed in transfected cells; host or cells: HEK293
Protocol: as §2

[7] = tested on: human A2BAR; experiment: Radioligand displacement binding, [3H]DPCPX
[8] = molecular target: T5, human A2AAR; experiment: Radioligand displacement binding, [3H]ZM241385, HEK293 membranes; details: mean ± standard error, three independent experiments
Protocol: as §1

[9] = tested on: T3, A1AR; experiment: A1AR-bla U2OS agonist screen (beta-arrestin/TEV, beta-lactamase reporter; Thermo Fisher); type: cell-based
Protocol: A1AR-bla U2OS cells are thawed and resuspended in Assay Media (Freestyle media) to a concentration of 312,500 cells/ml. 32 μl of cell suspension (10,000 cells) was added to each well of a 384-well TC-Treated assay plate. Cells in Assay Media were incubated for 16–24 h in the plate at 37°C/5% CO2 in a humidified incubator. 4 μl aliquots of a 10X serial dilution of NECA (control agonist starting concentration, 500 nM) or compounds were added to appropriate wells of the plate. 4 μl of Assay Media was added to all wells to bring the final assay volume to 40 μl. The plate was incubated for 5 h at 37°C/5% CO2 in a humidified incubator. 8 μl of 1 μM substrate + Solution D Loading Solution was added to each well and the plate was incubated for 2 h at room temperature. The plate was read on a fluorescence plate reader.
as §3

[10] = molecular target: T6, human A1 receptor (Homo sapiens, UniProt P30542); experiment: A1AR calcium influx assay in BA/F3 cells (Eurofins); details: maximum concentration tested 20 µM
T6 sequence (P30542 1-326): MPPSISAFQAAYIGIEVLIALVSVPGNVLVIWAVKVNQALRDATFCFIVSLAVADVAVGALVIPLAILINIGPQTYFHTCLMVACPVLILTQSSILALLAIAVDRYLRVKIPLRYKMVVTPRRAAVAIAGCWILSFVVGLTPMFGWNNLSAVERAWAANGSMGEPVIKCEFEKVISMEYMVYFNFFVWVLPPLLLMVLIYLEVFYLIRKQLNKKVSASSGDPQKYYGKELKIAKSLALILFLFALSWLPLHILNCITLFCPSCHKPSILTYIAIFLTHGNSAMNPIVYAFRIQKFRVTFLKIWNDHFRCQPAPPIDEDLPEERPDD
Protocol: This assay was performed using the screening services of Eurofins. Evaluation of the agonist activity of compounds at the human A1 receptor expressed in BA/F3 cells was determined by measuring their effect on cytosolic Ca^2+ ion mobilization using a fluorimetric detection method. The cells were suspended in HBSS buffer (Invitrogen) complemented with 20 mM Hepes and then distributed in microplates at a density of 5 × 10^4 cells/well. The fluorescent probe (Fluo8, AAT Bioquest, San Francisco, CA) mixed with probenicid in HBSS buffer (Invitrogen) complemented with 20 mM Hepes (Millipore, Burlington, MA) (pH 7.4) was then added into each well and equilibrated with the cells for 60 min at 30°C. Thereafter, the assay plates were positioned in a microplate reader (FlipR Tetra, Molecular Devices, San Jose, CA), which was used for the addition of the test compound, reference agonist or HBSS buffer (basal control), and for the measurements of changes in fluorescence intensity that varies proportionally to the free cytosolic Ca^2+ ion concentration.

[11] = molecular target: T7, human A3AR (Homo sapiens, UniProt P0DMS8); experiment: Radioligand displacement binding, [125I]I-AB-MECA, HEK293 membranes
T7 sequence (P0DMS8 1-318): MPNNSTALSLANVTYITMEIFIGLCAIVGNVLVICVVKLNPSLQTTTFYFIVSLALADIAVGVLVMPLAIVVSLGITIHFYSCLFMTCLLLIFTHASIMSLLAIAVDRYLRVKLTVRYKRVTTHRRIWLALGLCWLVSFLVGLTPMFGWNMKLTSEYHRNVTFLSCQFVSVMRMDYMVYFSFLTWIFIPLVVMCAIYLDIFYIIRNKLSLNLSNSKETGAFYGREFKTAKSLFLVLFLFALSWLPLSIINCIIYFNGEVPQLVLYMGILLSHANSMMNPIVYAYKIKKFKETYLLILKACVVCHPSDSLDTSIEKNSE
Protocol: as §1

[12] = molecular target: T7, human A3AR; experiment: cAMP assay in AR-expressing HEK293 cells (ALPHAScreen), A3AR; type: cell-based; details: for cAMP, A3AR agonist activity: A3AR-expressing cells, MRS5698 reference full agonist
Protocol: as §2

T5 sequence (P29274 whole entry): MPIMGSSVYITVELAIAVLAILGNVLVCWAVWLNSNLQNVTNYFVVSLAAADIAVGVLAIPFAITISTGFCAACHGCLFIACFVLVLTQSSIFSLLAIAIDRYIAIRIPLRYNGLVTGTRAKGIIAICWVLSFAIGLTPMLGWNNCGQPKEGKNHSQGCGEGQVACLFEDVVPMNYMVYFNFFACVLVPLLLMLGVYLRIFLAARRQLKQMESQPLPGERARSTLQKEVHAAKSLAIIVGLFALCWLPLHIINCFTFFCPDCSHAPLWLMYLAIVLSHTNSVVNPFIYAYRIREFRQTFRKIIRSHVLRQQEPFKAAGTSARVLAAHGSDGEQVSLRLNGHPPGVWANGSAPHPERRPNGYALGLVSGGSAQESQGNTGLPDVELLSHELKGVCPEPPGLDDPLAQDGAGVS

Inhibition of specific binding, % inhibition at 100 µM, A1 ([3H]DPCPX) [1]: 36.9 ± 3.4%
Inhibition of specific binding, % inhibition at 100 µM, A1 ([3H]DPCPX) ([1]; listed as crisaborole): weakly binding
cAMP, A2AAR activity (stimulation of cAMP) [6]: Active
Emax [6]: 67%
EC50 [6]: 2.8 µM and 2.78 µM
Inhibition of specific binding, % inhibition at 100 µM, A2B ([3H]DPCPX) [7]: <10%
Inhibition of specific binding, % inhibition at 100 µM, A2A ([3H]ZM241385) ([8]; 100 µM): No significant binding inhibition
inhibition at 100 µM ([8]; read-out: Inhibition of specific binding, % inhibition at 100 µM, A2A ([3H]ZM241385), 100 µM): 31.2 ± 5.6%
A1AR agonist activity, calcium influx assay [10]: no activity
A1AR agonist activity, calcium influx assay ([10]; listed as crisaborole): without activity
Inhibition of specific binding, % inhibition at 100 µM, A3 ([125I]I-AB-MECA) ([11]; 100 µM, mean ± standard error, three independent experiments): No significant binding inhibition
inhibition at 100 µM ([11]; read-out: Inhibition of specific binding, % inhibition at 100 µM, A3 ([125I]I-AB-MECA), 100 µM, mean ± standard error, three independent experiments): 28.8 ± 16.3%
SMILES: N#Cc1ccc(Oc2ccc3c(c2)COB3O)cc1 [Crisaborole]
cAMP, A1AR agonist activity [2]: Not active
cAMP, A1AR agonist activity ([2]; listed as crisaborole): without activity
normalized activity with respect to the positive control [3]: 98.52%
activation of A1AR, PathHunter β-Arrestin assay [4]: no activation; also recorded: without activity; also recorded: no agonist activity
cAMP Emax, A2BAR ([5]; NECA reference full agonist (100%)): Emax = 17%
cAMP accumulation, A2BAR ([5]; weaker than at the A2AAR): increased cAMP accumulation
activation of A1AR, A1AR-bla U2OS cells [9]: no activation; also recorded: without activity; also recorded: no agonist activity

SMILES: CCN(CC)CCOc1ccc2c(c1)C(=O)c1cc(OCCN(CC)CC)ccc1-2 [Tilorone Hydrochloride]
normalized activity with respect to the positive control [3]: 55.9%

SMILES: Fc1ccc([C@@H]2CCNC[C@H]2COc2ccc3c(c2)OCO3)cc1 [Paroxetine, Paroxetine Hydrochloride]
Inhibition of specific binding, % inhibition at 100 µM, A1 ([3H]DPCPX) [1]: 9.1 ± 3.9%
agonist activity at the human A3AR at 100 µM ([12]; 100 µM): did not show any agonist activity
cAMP, A3AR agonist activity [12]: no activation; also recorded: Not active
cAMP, A3AR agonist activity ([12]; listed as paroxetine): Lack of agonist effect
cAMP, A1AR agonist activity [2]: Not active
normalized activity with respect to the positive control [3]: 68.0%
cAMP, A2AAR activity (stimulation of cAMP) [6]: weak activation; also recorded: Active
Emax [6]: 69%
EC50 [6]: 14 µM
Ki, A2A ([3H]ZM241385) [8]: in the µM range
Ki ([8]; read-out: Ki, A2A ([3H]ZM241385)): 40.4 ± 9.8 µM
activation of A1AR, A1AR-bla U2OS cells [9]: no activation
Kd ([11]; as worded in the Discussion): 14.5 ± 9.7 µM
Ki, A3 ([125I]I-AB-MECA) ([11]; mean ± standard error, three independent experiments): in the µM range
Ki ([11]; mean ± standard error, three independent experiments, read-out: Ki, A3 ([125I]I-AB-MECA)): 14.5 ± 9.7 µM

Source: article PMC9257522, “Machine Learning for Discovery of New ADORA Modulators” (Frontiers in Pharmacology, 2022)
